ChEMBL document CHEMBL5226328, “Rational Multitargeted Drug Design Strategy from the Perspective of a Medicinal Chemist” (J Med Chem, 2021)

Assays:
Acetylcholinesterase = Acetylcholinesterase (Homo sapiens, UniProt P22303)
Description: Inhibition of AChE (unknown origin)

[1] = target: Sodium-dependent serotonin transporter (Homo sapiens, UniProt P31645)
Description: Inhibition of SERT (unknown origin)

Thromboxane-A synthase = target: T1, Thromboxane-A synthase (Homo sapiens, UniProt P24557)
T1 sequence (P24557 whole entry): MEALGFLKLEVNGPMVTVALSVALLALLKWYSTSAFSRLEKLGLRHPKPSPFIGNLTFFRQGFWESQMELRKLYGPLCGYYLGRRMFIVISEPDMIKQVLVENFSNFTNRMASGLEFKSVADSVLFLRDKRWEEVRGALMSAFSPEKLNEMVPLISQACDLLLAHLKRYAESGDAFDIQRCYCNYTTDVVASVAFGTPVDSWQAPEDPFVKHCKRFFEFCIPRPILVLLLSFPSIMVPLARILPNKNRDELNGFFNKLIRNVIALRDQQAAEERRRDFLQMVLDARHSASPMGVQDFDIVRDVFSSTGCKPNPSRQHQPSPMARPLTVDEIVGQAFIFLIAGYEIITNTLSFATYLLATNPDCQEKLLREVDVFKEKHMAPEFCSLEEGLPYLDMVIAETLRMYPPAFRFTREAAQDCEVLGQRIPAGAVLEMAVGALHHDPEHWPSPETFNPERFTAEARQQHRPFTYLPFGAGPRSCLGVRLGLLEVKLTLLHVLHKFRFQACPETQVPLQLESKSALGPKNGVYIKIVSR
Description: Inhibition of TXA2 synthetase (unknown origin)

Vitamin D3 receptor = target: T2, Vitamin D3 receptor (Homo sapiens, UniProt P11473)
T2 sequence (P11473 whole entry): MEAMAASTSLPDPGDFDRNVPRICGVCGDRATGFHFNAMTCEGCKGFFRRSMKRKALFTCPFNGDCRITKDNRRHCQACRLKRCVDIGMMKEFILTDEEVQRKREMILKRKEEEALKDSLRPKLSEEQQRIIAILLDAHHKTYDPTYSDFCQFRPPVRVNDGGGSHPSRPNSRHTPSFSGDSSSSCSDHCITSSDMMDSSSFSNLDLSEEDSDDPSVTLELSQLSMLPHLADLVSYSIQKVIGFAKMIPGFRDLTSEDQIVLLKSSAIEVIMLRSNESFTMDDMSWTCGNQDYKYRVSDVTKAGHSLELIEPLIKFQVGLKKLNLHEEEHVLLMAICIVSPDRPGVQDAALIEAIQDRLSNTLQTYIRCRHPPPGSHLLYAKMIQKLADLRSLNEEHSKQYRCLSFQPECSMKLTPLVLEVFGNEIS
Description: Inhibition of VDR (unknown origin)

[2] = target: Voltage-dependent calcium channel subunit alpha-2/delta-1 (Homo sapiens, UniProt P54289)
Voltage-dependent calcium channel subunit alpha-2/delta-1, sequence (P54289 25-956 limits assumed): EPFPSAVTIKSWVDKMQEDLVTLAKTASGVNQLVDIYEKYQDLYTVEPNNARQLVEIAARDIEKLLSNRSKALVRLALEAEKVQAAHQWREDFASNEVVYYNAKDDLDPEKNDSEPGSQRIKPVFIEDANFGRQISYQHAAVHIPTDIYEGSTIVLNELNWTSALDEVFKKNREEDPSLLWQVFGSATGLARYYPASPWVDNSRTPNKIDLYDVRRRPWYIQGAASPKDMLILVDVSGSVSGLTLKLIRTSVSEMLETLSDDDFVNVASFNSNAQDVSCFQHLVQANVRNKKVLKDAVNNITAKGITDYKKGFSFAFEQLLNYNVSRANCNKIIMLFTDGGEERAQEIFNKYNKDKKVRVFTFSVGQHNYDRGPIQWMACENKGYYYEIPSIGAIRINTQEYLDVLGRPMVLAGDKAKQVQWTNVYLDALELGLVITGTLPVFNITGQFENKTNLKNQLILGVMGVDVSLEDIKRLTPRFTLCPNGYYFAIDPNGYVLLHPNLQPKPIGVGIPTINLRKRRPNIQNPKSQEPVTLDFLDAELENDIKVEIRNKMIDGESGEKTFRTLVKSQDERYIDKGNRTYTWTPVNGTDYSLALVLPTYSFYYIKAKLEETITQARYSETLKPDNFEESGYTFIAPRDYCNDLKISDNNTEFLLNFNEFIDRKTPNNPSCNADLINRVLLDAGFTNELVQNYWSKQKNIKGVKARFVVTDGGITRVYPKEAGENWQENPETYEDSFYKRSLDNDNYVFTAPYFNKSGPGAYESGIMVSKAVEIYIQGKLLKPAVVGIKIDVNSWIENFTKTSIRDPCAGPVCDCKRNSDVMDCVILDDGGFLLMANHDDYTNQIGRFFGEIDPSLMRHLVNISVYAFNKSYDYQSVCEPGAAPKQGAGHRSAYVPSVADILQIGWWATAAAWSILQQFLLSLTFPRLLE
Voltage-dependent calcium channel subunit alpha-2/delta-1, sequence (P54289 957-1103 limits assumed): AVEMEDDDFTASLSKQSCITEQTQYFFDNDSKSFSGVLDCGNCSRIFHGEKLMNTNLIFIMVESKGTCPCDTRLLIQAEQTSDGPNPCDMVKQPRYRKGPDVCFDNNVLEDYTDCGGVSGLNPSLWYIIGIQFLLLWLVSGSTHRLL
Description: Binding affinity to calcium channel alpha2delta1 (unknown origin)

[3] = target: Amyloid-beta precursor protein (Homo sapiens, UniProt P05067)
Amyloid-beta precursor protein, sequence (P05067 whole entry): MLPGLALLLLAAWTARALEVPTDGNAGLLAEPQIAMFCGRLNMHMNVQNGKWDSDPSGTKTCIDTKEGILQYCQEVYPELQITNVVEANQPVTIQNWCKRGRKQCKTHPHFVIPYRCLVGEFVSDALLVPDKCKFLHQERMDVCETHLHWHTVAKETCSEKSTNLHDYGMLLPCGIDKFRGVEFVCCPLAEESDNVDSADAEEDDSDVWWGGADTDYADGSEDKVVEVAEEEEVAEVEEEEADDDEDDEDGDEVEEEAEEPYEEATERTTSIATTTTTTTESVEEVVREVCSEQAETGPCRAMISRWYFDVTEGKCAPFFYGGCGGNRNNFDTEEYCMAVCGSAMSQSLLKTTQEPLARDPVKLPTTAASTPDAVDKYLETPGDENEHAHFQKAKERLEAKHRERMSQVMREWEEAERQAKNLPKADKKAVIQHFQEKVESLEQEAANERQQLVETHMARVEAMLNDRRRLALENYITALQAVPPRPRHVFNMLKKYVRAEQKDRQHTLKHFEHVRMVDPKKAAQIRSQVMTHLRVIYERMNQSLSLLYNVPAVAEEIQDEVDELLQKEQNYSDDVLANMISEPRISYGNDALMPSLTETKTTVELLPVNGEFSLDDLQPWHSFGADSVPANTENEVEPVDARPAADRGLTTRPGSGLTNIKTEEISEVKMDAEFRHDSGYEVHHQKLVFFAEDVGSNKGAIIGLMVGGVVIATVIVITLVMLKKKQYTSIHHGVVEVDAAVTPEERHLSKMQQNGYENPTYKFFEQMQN
Description: Inhibition of amyloid beta (1 to 42 ) (unknown origin) self aggregation

Sodium-dependent serotonin transporter, sequence (P31645 whole entry): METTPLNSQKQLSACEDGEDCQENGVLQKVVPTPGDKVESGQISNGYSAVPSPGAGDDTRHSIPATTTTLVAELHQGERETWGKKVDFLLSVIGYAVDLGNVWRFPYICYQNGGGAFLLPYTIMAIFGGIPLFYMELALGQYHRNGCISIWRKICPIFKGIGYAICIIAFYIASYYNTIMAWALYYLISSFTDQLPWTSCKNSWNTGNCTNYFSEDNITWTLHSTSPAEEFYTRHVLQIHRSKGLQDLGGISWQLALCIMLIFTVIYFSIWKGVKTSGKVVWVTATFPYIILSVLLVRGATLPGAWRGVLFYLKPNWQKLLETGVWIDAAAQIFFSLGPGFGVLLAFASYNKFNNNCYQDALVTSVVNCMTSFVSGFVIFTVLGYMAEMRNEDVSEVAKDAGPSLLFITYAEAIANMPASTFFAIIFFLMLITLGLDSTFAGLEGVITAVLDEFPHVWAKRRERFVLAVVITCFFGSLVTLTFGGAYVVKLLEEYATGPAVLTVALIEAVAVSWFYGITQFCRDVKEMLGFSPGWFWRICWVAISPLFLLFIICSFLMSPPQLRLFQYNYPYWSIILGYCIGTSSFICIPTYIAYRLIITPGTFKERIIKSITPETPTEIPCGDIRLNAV
Acetylcholinesterase, sequence (P22303 whole entry): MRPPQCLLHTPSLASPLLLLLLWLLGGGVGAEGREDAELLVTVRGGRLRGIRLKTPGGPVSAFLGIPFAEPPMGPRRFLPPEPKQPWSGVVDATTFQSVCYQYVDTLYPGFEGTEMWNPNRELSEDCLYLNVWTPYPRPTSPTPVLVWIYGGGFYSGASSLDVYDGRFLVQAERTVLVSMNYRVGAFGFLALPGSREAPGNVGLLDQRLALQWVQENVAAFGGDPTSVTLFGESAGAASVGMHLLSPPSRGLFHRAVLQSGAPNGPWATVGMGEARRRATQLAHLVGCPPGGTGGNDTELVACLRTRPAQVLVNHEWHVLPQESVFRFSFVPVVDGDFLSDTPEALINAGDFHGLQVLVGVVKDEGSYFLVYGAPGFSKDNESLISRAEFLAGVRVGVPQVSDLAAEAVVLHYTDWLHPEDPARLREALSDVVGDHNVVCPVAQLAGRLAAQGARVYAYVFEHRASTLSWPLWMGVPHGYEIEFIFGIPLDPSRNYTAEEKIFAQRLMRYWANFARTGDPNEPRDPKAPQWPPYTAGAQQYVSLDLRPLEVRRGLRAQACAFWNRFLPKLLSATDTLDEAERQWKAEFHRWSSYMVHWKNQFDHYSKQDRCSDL

SMILES: CCN(C)C(=O)Oc1ccc2c(c1)C=CC(C)N(C)C2CCOc1ccc([N+](=O)[O-])cc1 (stereo not given)
- IC50 (Acetylcholinesterase): 14 nM
- IC50 [1]: 6 nM

SMILES: CCN(C)C(=O)Oc1ccc(C(CCOc2ccc([N+](=O)[O-])cc2)NC)cc1 (stereo not given)
- IC50 (Acetylcholinesterase): 101 nM
- IC50 [1]: 42 nM

SMILES: CCOC(=O)CCCCO/N=C(/c1cccnc1)c1cccc(CNS(=O)(=O)c2ccc(Cn3c(C)nc4ccccc43)cc2)c1
- IC50 (Thromboxane-A synthase): 4.7 nM

SMILES: CC(/C=C/C(=O)NO)=C\C(C)C1CCC2/C(=C/C=C3CC(O)CC(O)C3)CCCC21C (stereo not given)
- IC50 (Vitamin D3 receptor): 87 nM

SMILES: CCNc1ncc2c(n1)N1CCCC1CN(c1cccc(-c3noc(C)n3)c1)C2=O (stereo not given)
- Ki [2]: 11 nM

SMILES: Cc1c(O)c(=O)ccn1-c1ccc(OCCCN2CCCC2)cc1
- IC50 [3]: 2850 nM

SMILES: CCN(CC)CCCOc1ccc(-c2oc3ccccc3c2C(=O)c2ccc(C)cc2)cc1
- IC50 [3]: 56000 nM

SMILES: O=C(O)CCCCO/N=C(/c1cccnc1)c1cccc(C(F)(F)F)c1 [RIDOGREL]
- IC50 (Thromboxane-A synthase): 500 nM
